In patent US9925189B2, “Heterocyclic receptor agonists for the treatment of diabetes and metabolic disorders” (CymaBay Therapeutics, Inc., priority 2006, dated 2018):

Target: T1, IC-GPCR2 (Homo sapiens, UniProt Q8TDV5, S309L)
T1 construct: expressed in transfected cells
T1 sequence (Q8TDV5 1-335 S309L): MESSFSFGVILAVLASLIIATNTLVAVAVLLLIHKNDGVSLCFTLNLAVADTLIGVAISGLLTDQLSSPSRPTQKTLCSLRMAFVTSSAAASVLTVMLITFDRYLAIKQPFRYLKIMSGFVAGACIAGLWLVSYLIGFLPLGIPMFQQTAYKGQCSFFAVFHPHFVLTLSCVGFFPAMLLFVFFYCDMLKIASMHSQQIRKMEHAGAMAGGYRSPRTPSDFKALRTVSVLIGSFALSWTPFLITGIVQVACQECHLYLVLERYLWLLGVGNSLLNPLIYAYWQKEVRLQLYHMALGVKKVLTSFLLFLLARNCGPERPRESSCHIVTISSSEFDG
Experiment: Stimulation of cAMP in CHO cells stably expressing IC-GPCR2 (HTRF cAMP assay)
Type: cell-based
Settings: 0.5 h, 30 minutes, IC-GPCR2 stably expressing CHO cells, read-out: Activity at 10 uM (% change in FRET signal from DMSO control)
Procedure: This assay was developed using a stable cell line expressing IC-GPCR-2, generated as follows. IC-GPCR2 (SEQ ID NO:1) was cloned into Gateway pDEST 40vector (Invitrogen), using the Gateway cloning system (invitrogen) according to the manufacturer's instructions. A stable cell line was generated by transfecting a 10 cm plate of CHO cells (source) with 8 ug of this construct using Transit-CHO transfection kit (Mirus). CHO cells were plated the day prior to transfection at a density of 3,000,000 cells/plate. Clones were selected using the antibiotic G418 at 500 ug/ml. 23 clones were picked and assayed for the expression of the receptor by measuring changes in intracellular cAMP levels in response to an IC-GPCR2 agonist.
To measure cAMP activity in response to IC-GPCR2 agonist, the clones were plated in 96 well plates at 17500 cells per well. On the day after plating, cells were incubated with the IC-CPCR2 agonist at […] for 30 minutes in Ham's F12 Media (Gibco) with 0.04% DMSO. cAMP was measured using the cAMP dynamic kit from Cis Bio (Bedford, Mass.) according to the manufacturer's instructions. Briefly, cells were lysed, and cAMP levels determined by competitive immunoassay using D2 labeled cAMP, and europium cryptate tagged anti cAMP antibody. When in close proximity, the D2 and europium cryptate undergo fluorescence resonance energy transfer (FRET), which is measured as a fluorescence ratio (665 nm/620 nm). Unlabelled cAMP in the cell lysate competed with the D2 labeled cAMP for the europium crypate labeled antibody. The resulting decrease in FRET signal corresponded to intracellular cAMP levels. Fluorescence was read on a BMG Labtech PHERAstar, software version 1.50.
Compounds were dissolved in 100% DMSO to a concentration of […] to provide stock solutions. To determine activity against IC-GPCR2, compounds were incubated with IC-GPCR2 stably expressing cells (described above), at 6-8 concentrations ranging from 0.00003 to 10 micromolar, in 96 well plates, in 50 ul of Hams F12 media for 30 minutes. Cells were plated at 17500 cells per well 1 day before running the assay. All compounds were also screened against the parental CHO cells. cAMP was measured using the cAMP dynamic kit from Cis Bio (Bedford, Mass.), according to the manufacturer's instructions. Briefly, cells were lysed and cAMP levels determined by competitive immunoassay using D2 labeled cAMP, and europium cryptate tagged anti cAMP antibody. When in close proximity, the D2 and europium cryptate undergo fluorescence resonance energy transfer (FRET), which is measured as a fluorescence ratio (665 nm/620 nm). Unlabelled cAMP in the cell lysate competed with the D2 labeled cAMP for the europium crypate labeled antibody. The resulting decrease in FRET signal corresponded to intracellular cAMP levels.
Activities of compounds disclosed in Table 1 and Table 2 below are expressed as the % change in FRET signal from DMSO control. “*” no activity observed when tested at 10 micromolar but no higher concentrations were tested. NT indicates the compound was not tested at the indicated concentration.

Compound | activation at 10 µM
C[C@H]1CN(C(=O)OC(C)(C)C)CC[C@H]1c1nc(COc2ccc(-n3cnnn3)cc2)cs1 (stereo in doubt) [Example 144, 3-Methyl-4-[4-(4-tetrazol-1-yl-phenoxymethyl)-thiazol-2-yl]-piperidine-1-carboxylic acid tert-butyl ester] | 81%
C[C@H]1CN(C(=O)OC(C)(C)C)CC[C@H]1c1nc(COc2ccc(-n3cnnn3)cc2F)cs1 (stereo in doubt) [Example 145, 4-[4-(2-Fluoro-4-tetrazol-1-yl-phenoxymethyl)-thiazol-2-yl]-3-methyl-piperidine-1-carboxylic acid tert-butyl ester] | 73%
CCc1cnc(N2CC[C@@H](c3nc(COc4ccc(-n5cnnn5)cc4)cs3)[C@@H](C)C2)nc1 (stereo in doubt) [Example 199, 5-Ethyl-2-{3-methyl-4-[4-(4-tetrazol-1-yl-phenoxymethyl)-thiazol-2-yl]-piperidin-1-yl}-pyrimidine] | 78%
CCc1cnc(N2CC[C@@H](c3nc(COc4ccc(-n5cnnn5)cc4F)cs3)[C@@H](C)C2)nc1 (stereo in doubt) [Example 200, 5-Ethyl-2-{4-[4-(2-fluoro-4-tetrazol-1-yl-phenoxymethyl)-thiazol-2-yl]-3-methyl-piperidin-1-yl}-pyrimidine] | 82%
C[C@H]1CN(c2ncc(Cl)cn2)CC[C@H]1c1nc(COc2ccc(-n3cnnn3)cc2F)cs1 (stereo in doubt) [Example 201, 5-Chloro-2-{4-[4-(2-fluoro-4-tetrazol-1-yl-phenoxymethyl)-thiazol-2-yl]-3-methyl-piperidin-1-yl}-pyrimidine] | 87%
C[C@H]1CN(c2ncc(C(F)(F)F)cn2)CC[C@H]1c1nc(COc2ccc(-n3cnnn3)cc2F)cs1 (stereo in doubt) [Example 202, 2-{4-[4-(2-Fluoro-4-tetrazol-1-yl-phenoxymethyl)-thiazol-2-yl]-3-methyl-piperidin-1-yl}-5-trifluoromethyl-pyrimidine] | 83%
CC(C)(C)OC(=O)N1CCC(c2nc(COc3ccc(S(C)(=O)=O)cc3)cs2)CC1 [Example 1, 4-[4-(4-Methanesulfonyl-phenoxymethyl)-thiazol-2-yl]-piperidine-1-carboxylic acid tert-butyl ester] | 69%
CC(C)(C)OC(=O)N1CCC(c2nc(COc3ccc(-n4ccnc4)cc3)cs2)CC1 [Example 2, 4-[4-(4-Imidazol-1-yl-phenoxymethyl)-thiazol-2-yl]-piperidine-1-carboxylic acid tert-butyl ester] | 50%
CC(=O)Nc1ccc(OCc2csc(C3CCN(C(=O)OC(C)(C)C)CC3)n2)cc1 [Example 3, 4-[4-(4-Acetylamino-phenoxymethyl)-thiazol-2-yl]-piperidine-1-carboxylic acid tert-butyl ester] | 63%
CC(C)(C)OC(=O)N1CCC(c2nc(COc3ccc(-n4cncn4)cc3)cs2)CC1 [Example 5, 4-[4-(4-[1,2,4]Triazol-1-yl-phenoxymethyl)-thiazol-2-yl]-piperidine-1-carboxylic acid tert-butyl ester] | 60%
CC(C)(C)OC(=O)N1CCC(c2nc(COc3ccc(N4CCCC4=O)cc3)cs2)CC1 [Example 6, 4-{4-[4-(2-Oxo-pyrrolidin-1-yl)-phenoxymethyl]-thiazol-2-yl}-piperidine-1-carboxylic acid tert-butyl ester] | 68%
CC(C)(C)OC(=O)N1CCC(c2nc(COc3ccc(-n4cnnn4)cc3)cs2)CC1 [Example 7, 4-[4-(4-Tetrazol-1-yl-phenoxymethyl)-thiazol-2-yl]-piperidine-1-carboxylic acid tert-butyl ester] | 64%
CCc1cnc(N2CCC(c3nc(COc4ccc(S(N)(=O)=O)cc4)cs3)CC2)nc1 [Example 9, 4-{2-[1-(5-Ethyl-pyrimidin-2-yl)-piperidin-4-yl]-thiazol-4-ylmethoxy}-benzenesulfonamide] | 54%
CCc1cnc(N2CCC(c3nc(COc4cccc(-n5cnnn5)c4)cs3)CC2)nc1 [Example 11] | 34%
CCc1cnc(N2CCC(c3nc(COc4ccc(-n5nnnc5C)cc4)cs3)CC2)nc1 [Example 12, 5-Ethyl-2-(4-{4-[4-(5-methyl-tetrazol-1-yl)-phenoxymethyl]-thiazol-2-yl}-piperidin-1-yl)-pyrimidine] | 70%
CCc1cnc(N2CCC(c3nc(COc4ccc(SC)c(C)c4)cs3)CC2)nc1 [Example 13] | 94%
CCc1cnc(N2CCC(c3nc(COc4ccc(S(C)(=O)=O)c(C)c4)cs3)CC2)nc1 [Example 14, 5-Ethyl-2-{4-[4-(4-methanesulfonyl-3-methyl-phenoxymethyl)-thiazol-2-yl]-piperidin-1-yl}-pyrimidine] | 84%
CCc1cnc(N2CCC(c3nc(COc4ccc5sc(=O)oc5c4)cs3)CC2)nc1 [Example 15, 6-{2-[1-(5-Ethyl-pyrimidin-2-yl)-piperidin-4-yl]-thiazol-4-ylmethoxy}-benzo[1,3]oxathiol-2-one] | 55%
CCc1cnc(N2CCC(c3nc(COc4ccc(SC(F)(F)F)cc4)cs3)CC2)nc1 [Example 16, 5-Ethyl-2-{4-[4-(4-trifluoromethylsulfanyl-phenoxymethyl)-thiazol-2-yl]-piperidin-1-yl}-pyrimidine] | 56%
CC(C)(C)OC(=O)N1CCC(c2nc(COc3ccc(-n4cnnn4)c(F)c3)cs2)CC1 [Example 17, 4-[4-(3-Fluoro-4-tetrazol-1-yl-phenoxymethyl)-thiazol-2-yl]-piperidine-1-carboxylic acid tert-butyl ester] | 69%
CC(C)(C)OC(=O)N1CCC(c2nc(COc3ccc(S(C)(=O)=O)cc3F)cs2)CC1 [Example 18, 4-[4-(2-Fluoro-4-methanesulfonyl-phenoxymethyl)-thiazol-2-yl]-piperidine-1-carboxylic acid tert-butyl ester] | 72%
CC(C)(C)OC(=O)N1CCC(c2nc(COc3ccc(-n4cnnn4)cc3F)cs2)CC1 [Example 19, 4-[4-(2-Fluoro-4-tetrazol-1-yl-phenoxymethyl)-thiazol-2-yl]-piperidine-1-carboxylic acid tert-butyl ester] | 76%
CC(C)(C)OC(=O)N1CCC(c2nc(CS(=O)(=O)c3ccc(S(C)(=O)=O)cc3)cs2)CC1 [Example 21, 4-[4-(4-Methanesulfonyl-benzenesulfonylmethyl)-thiazol-2-yl]-piperidine-1-carboxylic acid tert-butyl ester] | 23%
CC(C)OC(=O)N1CCC(c2nc(COc3ccc(S(C)(=O)=O)cc3)cs2)CC1 [Example 22, 4-[4-(4-Methanesulfonyl-phenoxymethyl)-thiazol-2-yl]-piperidine-1-carboxylic acid isopropyl ester] | 62%
CS(=O)(=O)c1ccc(OCc2csc(C3CCN(C(=O)OCc4ccccc4)CC3)n2)cc1 [Example 23, 4-[4-(4-Methanesulfonyl-phenoxymethyl)-thiazol-2-yl]-piperidine-1-carboxylic acid benzyl ester] | 37%
CC(C)COC(=O)N1CCC(c2nc(COc3ccc(S(C)(=O)=O)cc3)cs2)CC1 [Example 24, 4-[4-(4-Methanesulfonyl-phenoxymethyl)-thiazol-2-yl]-piperidine-1-carboxylic acid isobutyl ester] | 58%
